Test results published in patent US8263606B2 (Xenon Pharmaceuticals Inc., priority 2008, dated 2012).

Experiments:
CYP3A4 = CYP3A4 (Homo sapiens, UniProt P08684); assay: Cytochrome P450 (CYP450) Inhibition Assay, CYP3A4 (Vivid fluorescence, BOMCC substrate); settings: human, P450 Baculosomes (recombinant CYP3A4), probe BOMCC (Vivid substrate)
sodium channel = assay: Guanidine influx assay (14C-guanidine radiotracer flux, in vitro); type: cell-based, human or rat; settings: guanidine influx assay using a known cell line that expresses a sodium channel
Outline: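 Sodium channel block is measured as reduced 14C-guanidine uptake in cells stably expressing human or rat channels, stimulated with aconitine. Potency is given as IC50 from a four-parameter curve.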

Chain of CYP3A4 (P08684 whole entry): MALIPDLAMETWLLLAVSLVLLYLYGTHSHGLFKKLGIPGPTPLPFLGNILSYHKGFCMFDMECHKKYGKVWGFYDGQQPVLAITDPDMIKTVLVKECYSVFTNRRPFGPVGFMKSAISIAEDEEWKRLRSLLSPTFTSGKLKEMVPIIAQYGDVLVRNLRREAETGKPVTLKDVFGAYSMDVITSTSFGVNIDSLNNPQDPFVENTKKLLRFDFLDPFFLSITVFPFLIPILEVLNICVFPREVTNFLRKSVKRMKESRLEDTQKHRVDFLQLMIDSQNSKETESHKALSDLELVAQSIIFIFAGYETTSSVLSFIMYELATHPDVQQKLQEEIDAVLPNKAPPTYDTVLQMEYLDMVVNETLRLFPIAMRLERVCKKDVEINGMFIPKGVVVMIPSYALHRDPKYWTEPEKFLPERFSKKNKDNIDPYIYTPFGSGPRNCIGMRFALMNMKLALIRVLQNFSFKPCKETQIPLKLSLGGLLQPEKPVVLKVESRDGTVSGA

melting point [°C]	inhibition at 10 µM (CYP3A4) [%]	IC50 (sodium channel) [nM]	Compound
96 to 99	> 50	1000 to 10000	CCCCN(C)CCCN1C(=O)C2(COc3cc4c(cc32)CCO4)c2ccccc21.Cl (stereo not drawn) [Example 15.2, 1′-{3-[butyl(methyl)amino]propyl}-5,6-dihydrospiro[benzo[1,2-b:5,4-b′]difuran-3,3′-indol]-2′(1′H)-one hydrochloride]
124 to 126	> 50	100 to 1000	Cl.O=C1N(CCCNCC(F)(F)F)c2ccccc2C12COc1cc3c(cc12)CCO3 (stereo not drawn) [Example 15.3, 1′-{3-[(2,2,2-trifluoroethyl)amino]propyl}-5,6-dihydrospiro[benzo[1,2-b:5,4-b′]difuran-3,3′-indol]-2′(1′H)-one hydrochloride]
214 to 216	> 50	100 to 1000	Cl.N#CCCNCCCN1C(=O)C2(COc3cc4c(cc32)CCO4)c2ccccc21 (stereo not drawn) [Example 15.4, 3-{[3-(2′-oxo-5,6-dihydrospiro[benzo[1,2-b:5,4-b′]difuran-3,3′-indol]-1′(2′H)-yl)propyl]amino}propanenitrile hydrochloride]
223 to 225	> 50	100 to 1000	CN(C)c1ccc(-c2cccc3c2C2(COc4cc5c(cc42)CCO5)C(=O)N3Cc2ccc(C(F)(F)F)o2)cn1 (stereo not drawn) [Example 16.11, 4′-[6-(dimethylamino)pyridin-3-yl]-1′-{[5-(trifluoromethyl)furan-2-yl]methyl}-5,6-dihydrospiro[benzo[1,2-b:5,4-b′]difuran-3,3′-indol]-2′(1′H)-one]
215 to 218	> 50	100 to 1000	CN(C)c1ccc(-c2cccc3c2C2(COc4cc5c(cc42)OCO5)C(=O)N3Cc2ccc(Cl)s2)cn1 (stereo not drawn) [Example 16.12, 1′-[(5-chloro-2-thienyl)methyl]-4′-[6-(dimethylamino)pyridin-3-yl]spiro[furo[2,3-f][1,3]benzodioxole-7,3′-indol]-2′(1′H)-one]
166 to 168	> 50	100 to 1000	O=C1N(Cc2ccc(Cl)s2)c2cccc(-c3ccoc3)c2C12COc1cc3c(cc12)OCO3 (stereo not drawn) [Example 16.13, 1′-[(5-chloro-2-thienyl)methyl]-4′-(3-furyl)spiro[furo[2,3-f][1,3]benzodioxole-7,3′-indol]-2′(1′1-1)-one]
> 245	> 50	1000 to 10000	CN(C)c1ccc(-c2cccc3c2C2(COc4cc5c(cc42)OCO5)C(=O)N3)cn1 (stereo not drawn) [Example 16.14, 4′-[6-(dimethylamino)pyridin-3-yl]spiro[furo[2,3-f][1,3]benzodioxole-7,3′-indol]-2′(1′H)-one]
187 to 188	> 50	100 to 1000	CN(C)c1ccc(-c2cccc3c2C2(COc4cc5c(cc42)OCCO5)C(=O)N3Cc2ccccn2)cn1 (stereo not drawn) [Example 16.59, 4′-(6-(dimethylamino)pyridin-3-yl)-1′-(pyridin-2-ylmethyl)-3,7-dihydro-2H-spiro[benzofuro[5,6-b][1,4]dioxine-8,3′-indolin]-2′-one]
205 to 206	> 50	1 to 100	COc1ccc(-c2cccc3c2C2(COc4cc5c(cc42)OCCO5)C(=O)N3Cc2ccccn2)cc1 (stereo not drawn) [Example 16.60, 4′-(4-methoxyphenyl)-1′-(pyridin-2-ylmethyl)-3,7-dihydro-2H-spiro[benzofuro[5,6-b][1,4]dioxine-8,3′-indolin]-2′-one]
144 to 145	> 50	1 to 100	CN1C(=O)[C@@]2(COc3cc4c(cc32)OCO4)c2c(-c3ccoc3)cccc21 [Example 16.61, (7S)-4′-furan-3-yl-1′-methylspiro[furo[2,3-f][1,3]benzodioxole-7,3′-indol]-2′(1′H)-one]
144 to 145	> 50	100 to 1000	CN1C(=O)[C@]2(COc3cc4c(cc32)OCO4)c2c(-c3ccoc3)cccc21 [Example 16.62, (7R)-4′-furan-3-yl-1′-methylspiro[furo[2,3-f][1,3]benzodioxole-7,3′-indol]-2′(1′H)-one]
60 to 62	> 50	1000 to 10000	COc1ccc(-c2ccc3c(c2)C2(CO3)C(=O)N(Cc3ccc(Cl)s3)c3ccccc32)cn1 (stereo not drawn) [Example 16.88, 1′-[(5-chloro-2-thienyl)methyl]-5-(6-methoxypyridin-3-yl)spiro[1-benzofuran-3,3′-indol]-2′(1′H)-one]
226 to 227	> 50	1 to 100	O=C1N(Cc2ccc(O)cc2)c2ccccc2C12COc1cc3c(cc12)CCO3 (stereo not drawn) [Example 17, 1′-(4-hydroxybenzyl)-5,6-dihydrospiro[benzo[1,2-b:5,4-b′]difuran-3,3′-indol]-2′(1′H)-one]
243 to 244	> 50	1 to 100	O=C1N(Cc2ccc(O)cc2)c2ccccc2C12COc1cc3c(cc12)OCCO3 (stereo not drawn) [Example 17.1, 1′-(4-hydroxybenzyl)-2,3-dihydrospiro[furo[2,3-g][1,4]benzodioxine-8,3′-indol]-2′(1′H)-one]
157 to 158	< 50	1 to 100	O=C1N(CCCO)c2ccccc2C12COc1cc3c(cc12)OCCO3 (stereo not drawn) [Example 17.2, 1′-(3-hydroxypropyl)-2,3-dihydrospiro[furo[2,3-g][1,4]benzodioxine-8,3′-indol]-2′(1′H)-one]
198 to 200	< 50	1 to 100	CCOC(=O)N1C(=O)C2(COc3cc4c(cc32)OCCO4)c2ccccc21 (stereo not drawn) [Example 18, ethyl 2′-oxo-2,3-dihydrospiro[furo[2,3-g][1,4]benzodioxine-8,3′-indole]-1′(2′H)-carboxylate]
154 to 156	> 50	1 to 100	CC(C)(C)OC(=O)N1C(=O)C2(COc3cc4c(cc32)OCO4)c2c(Br)cccc21 (stereo not drawn) [Example 18.1, tert-butyl 4′-bromo-2′-oxospiro[furo[2,3-f][1,3]benzodioxole-7,3′-indole]-1′(2′H)-carboxylate]
171 to 172	< 50	100 to 1000	CC(C)(C)OC(=O)N1C(=O)C2(COc3cc4c(cc32)OCCO4)c2ccccc21 (stereo not drawn) [Example 18.2, tert-butyl 2′-oxo-2,3-dihydrospiro[furo[2,3-g][1,4]benzodioxine-8,3′-indole]-1′(2′H)-carboxylate]
112 to 118	< 50	1000 to 10000	CC1(C)O[C@H]2[C@@H](O1)[C@@H](CN1C(=O)C3(COc4cc5c(cc43)OCCO5)c3ccccc31)O[C@@H]1OC(C)(C)O[C@@H]12 (stereo partly drawn) [Example 19, 1′-{[(3aR,5R,5aS,8aS,8bR)-2,2,7,7-tetramethyltetrahydro-3aH-bis[1,3]dioxolo[4,5-b:4′,5′-d]pyran-5-yl]methyl}-2,3-dihydrospiro[furo[2,3-g][1,4]benzodioxine-8,3′-indol]-2′(1′H)-one]
122 to 126	< 50	1000 to 10000	O=C1N(C[C@H]2OC(O)[C@H](O)[C@@H](O)[C@H]2O)c2ccccc2C12COc1cc3c(cc12)OCCO3 (stereo partly drawn) [Example 20, 6-deoxy-6-(2′-oxo-2,3-dihydrospiro[furo[2,3-g][1,4]benzodioxine-8,3′-indol]-1′(2′H)-yl)-D-galactopyranose]
227 to 228	< 50	1 to 100	O=C1N(C2CC2)c2ccccc2C12COc1cc3c(cc12)OCCO3 (stereo not drawn) [Example 21, 1′-cyclopropyl-2,3-dihydrospiro[furo[2,3-g][1,4]benzodioxine-8,3′-indol]-2′(1′H)-one]
236 to 238	< 50	1 to 100	CC(=O)N1C(=O)C2(COc3cc4c(cc32)OCCO4)c2ccccc21 (stereo not drawn) [Example 22, 1′-acetyl-2,3-dihydrospiro[furo[2,3-g][1,4]benzodioxine-8,3′-indol]-2′(1′H)-one]
154 to 155	< 50	1 to 100	O=C1N(Cc2cc(C(F)(F)F)ccn2)c2ccccc2C12COc1cc3c(cc12)OCCO3 (stereo not drawn) [Example 23, 1′-{[4-(trifluoromethyl)pyridin-2-yl]methyl}-2,3-dihydrospiro[furo[2,3-g][1,4]benzodioxine-8,3′-indol]-2′(1′H)-one]
80 to 89	< 50	1 to 100	Cc1noc(-c2cccc(CN3C(=O)C4(COc5cc6c(cc54)OCCO6)c4ccccc43)c2)n1 (stereo not drawn) [Example 28, 1′-[3-(3-methyl-1,2,4-oxadiazol-5-yl)benzyl]-2,3-dihydrospiro[furo[2,3-g][1,4]benzodioxine-8,3′-indol]-2′(1′H)-one]
177 to 178	< 50	1 to 100	Cc1noc(-c2ccc(CN3C(=O)C4(COc5cc6c(cc54)OCCO6)c4ccccc43)cc2)n1 (stereo not drawn) [Example 30, 1′-[4(3-methyl-1,2,4-oxadiazol-5-yl)benzyl]-2,3-dihydrospiro[furo[2,3-g][1,4]benzodioxine-8,3′-indol]-2′(1′H)-one]
220 to 222	< 50	100 to 1000	NC(=O)c1ccc2c(c1)C1(COc3cc4c(cc31)OCCO4)C(=O)N2Cc1ccccn1 (stereo not drawn) [Example 31, 2′-oxo-1′-(pyridin-2-ylmethyl)-1′,2,2′,3-tetrahydrospiro[furo[2,3-g][1,4]benzodioxine-8,3′-indole]-5′-carboxamide]
